Test results from US11767310B2, “Nicotinamide RIPK1 inhibitors” (AbbVie Inc., priority 2021, dated 2023).
Where two headings read alike, the source gives them in different places.

Columns and labels:
Assay in all cases: Kinase binding screen
Conditions in all cases: read-out: Percent Control at 100 nM Compound Concentration
MAP4K5 = MAP4K5 (Homo sapiens (Human), UniProt Q9Y4K4)
SGK = SGK (Homo sapiens (Human), UniProt O00141)
AMPK-alpha1 = AMPK-alpha1 (Homo sapiens (Human), UniProt Q13131)
ABL1-phosphorylated = ABL1-phosphorylated (Homo sapiens (Human), UniProt P00519)
AKT2 = AKT2 (Homo sapiens (Human), UniProt P31751)
JNK1 = JNK1 (Homo sapiens (Human), UniProt P45983)
MLCK = MLCK (Homo sapiens (Human), UniProt Q32MK0)
DDR2 = DDR2 (Homo sapiens (Human), UniProt Q16832)
[1] = molecular target: RSK4(Kin.Dom.1-N-terminal) (Homo sapiens (Human), UniProt Q9UK32)
PIK3CA = PIK3CA (Homo sapiens (Human), UniProt P42336)
FLT3(D835V) = FLT3(D835V) (Homo sapiens (Human), UniProt P36888, D835V)
ADCK4 = ADCK4 (Homo sapiens (Human), UniProt Q96D53)
LOK = LOK (Homo sapiens (Human), UniProt O94804)
BRSK2 = BRSK2 (Homo sapiens (Human), UniProt Q8IWQ3)
MY03A = MY03A (Homo sapiens (Human), UniProt Q8NEV4)
CSNK1G2 = CSNK1G2 (Homo sapiens (Human), UniProt P78368)
LATS2 = LATS2 (Homo sapiens (Human), UniProt Q9NRM7)
MAP3K15 = MAP3K15 (Homo sapiens (Human), UniProt Q6ZN16)
CDKL1 = CDKL1 (Homo sapiens (Human), UniProt Q00532)
BIKE = BIKE (Homo sapiens (Human), UniProt Q9NSY1)
p38-delta = p38-delta (Homo sapiens (Human), UniProt O15264)
EPHB2 = EPHB2 (Homo sapiens (Human), UniProt P29323)
IRAK4 = IRAK4 (Homo sapiens (Human), UniProt Q9NWZ3)
NEK1 = NEK1 (Homo sapiens (Human), UniProt Q96PY6)
BRAF = BRAF (Homo sapiens (Human), UniProt P15056)
[2] = molecular target: RSK3(Kin.Dom.2-C-terminal) (Homo sapiens (Human), UniProt Q15349)
MAP3K3 = MAP3K3 (Homo sapiens (Human), UniProt Q99759)
ASK2 = ASK2 (Homo sapiens (Human), UniProt O95382)
VPS34 = VPS34 (Homo sapiens (Human), UniProt Q8NEB9)

Measured: remaining activity at 0.1 µM

Chain of MAP3K15 (Q6ZN16 whole entry): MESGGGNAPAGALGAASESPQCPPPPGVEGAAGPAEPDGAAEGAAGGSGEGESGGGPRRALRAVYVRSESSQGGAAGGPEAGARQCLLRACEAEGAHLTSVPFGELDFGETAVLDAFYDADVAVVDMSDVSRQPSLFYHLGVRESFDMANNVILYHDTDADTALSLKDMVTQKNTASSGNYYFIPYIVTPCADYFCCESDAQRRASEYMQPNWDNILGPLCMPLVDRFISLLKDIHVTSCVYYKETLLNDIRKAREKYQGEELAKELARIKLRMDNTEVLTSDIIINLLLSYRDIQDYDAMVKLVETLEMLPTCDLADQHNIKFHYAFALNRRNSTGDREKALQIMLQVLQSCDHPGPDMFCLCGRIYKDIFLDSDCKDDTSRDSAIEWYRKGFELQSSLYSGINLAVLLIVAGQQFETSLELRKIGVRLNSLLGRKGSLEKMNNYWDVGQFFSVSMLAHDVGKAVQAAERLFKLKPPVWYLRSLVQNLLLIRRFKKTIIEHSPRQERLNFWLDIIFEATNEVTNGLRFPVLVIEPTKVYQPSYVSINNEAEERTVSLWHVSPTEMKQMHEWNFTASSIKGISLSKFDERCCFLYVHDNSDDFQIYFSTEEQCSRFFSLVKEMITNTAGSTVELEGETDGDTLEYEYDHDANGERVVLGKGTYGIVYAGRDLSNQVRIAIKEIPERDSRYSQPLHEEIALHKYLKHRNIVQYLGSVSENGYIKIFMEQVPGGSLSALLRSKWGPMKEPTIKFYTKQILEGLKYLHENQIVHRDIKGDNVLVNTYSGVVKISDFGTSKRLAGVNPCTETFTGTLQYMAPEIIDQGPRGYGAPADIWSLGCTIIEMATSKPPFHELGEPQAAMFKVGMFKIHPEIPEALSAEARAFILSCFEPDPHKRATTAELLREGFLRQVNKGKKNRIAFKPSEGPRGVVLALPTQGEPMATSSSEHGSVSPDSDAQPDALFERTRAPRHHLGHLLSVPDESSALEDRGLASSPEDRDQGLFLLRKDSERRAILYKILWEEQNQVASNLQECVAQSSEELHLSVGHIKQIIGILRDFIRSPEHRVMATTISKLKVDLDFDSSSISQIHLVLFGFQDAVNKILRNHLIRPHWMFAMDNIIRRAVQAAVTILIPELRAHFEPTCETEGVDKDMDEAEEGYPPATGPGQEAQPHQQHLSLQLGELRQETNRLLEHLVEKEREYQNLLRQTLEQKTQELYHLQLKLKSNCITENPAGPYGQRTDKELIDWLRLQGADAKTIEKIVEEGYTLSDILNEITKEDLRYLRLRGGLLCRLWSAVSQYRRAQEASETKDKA
Chain of MY03A (Q8NEV4 whole entry): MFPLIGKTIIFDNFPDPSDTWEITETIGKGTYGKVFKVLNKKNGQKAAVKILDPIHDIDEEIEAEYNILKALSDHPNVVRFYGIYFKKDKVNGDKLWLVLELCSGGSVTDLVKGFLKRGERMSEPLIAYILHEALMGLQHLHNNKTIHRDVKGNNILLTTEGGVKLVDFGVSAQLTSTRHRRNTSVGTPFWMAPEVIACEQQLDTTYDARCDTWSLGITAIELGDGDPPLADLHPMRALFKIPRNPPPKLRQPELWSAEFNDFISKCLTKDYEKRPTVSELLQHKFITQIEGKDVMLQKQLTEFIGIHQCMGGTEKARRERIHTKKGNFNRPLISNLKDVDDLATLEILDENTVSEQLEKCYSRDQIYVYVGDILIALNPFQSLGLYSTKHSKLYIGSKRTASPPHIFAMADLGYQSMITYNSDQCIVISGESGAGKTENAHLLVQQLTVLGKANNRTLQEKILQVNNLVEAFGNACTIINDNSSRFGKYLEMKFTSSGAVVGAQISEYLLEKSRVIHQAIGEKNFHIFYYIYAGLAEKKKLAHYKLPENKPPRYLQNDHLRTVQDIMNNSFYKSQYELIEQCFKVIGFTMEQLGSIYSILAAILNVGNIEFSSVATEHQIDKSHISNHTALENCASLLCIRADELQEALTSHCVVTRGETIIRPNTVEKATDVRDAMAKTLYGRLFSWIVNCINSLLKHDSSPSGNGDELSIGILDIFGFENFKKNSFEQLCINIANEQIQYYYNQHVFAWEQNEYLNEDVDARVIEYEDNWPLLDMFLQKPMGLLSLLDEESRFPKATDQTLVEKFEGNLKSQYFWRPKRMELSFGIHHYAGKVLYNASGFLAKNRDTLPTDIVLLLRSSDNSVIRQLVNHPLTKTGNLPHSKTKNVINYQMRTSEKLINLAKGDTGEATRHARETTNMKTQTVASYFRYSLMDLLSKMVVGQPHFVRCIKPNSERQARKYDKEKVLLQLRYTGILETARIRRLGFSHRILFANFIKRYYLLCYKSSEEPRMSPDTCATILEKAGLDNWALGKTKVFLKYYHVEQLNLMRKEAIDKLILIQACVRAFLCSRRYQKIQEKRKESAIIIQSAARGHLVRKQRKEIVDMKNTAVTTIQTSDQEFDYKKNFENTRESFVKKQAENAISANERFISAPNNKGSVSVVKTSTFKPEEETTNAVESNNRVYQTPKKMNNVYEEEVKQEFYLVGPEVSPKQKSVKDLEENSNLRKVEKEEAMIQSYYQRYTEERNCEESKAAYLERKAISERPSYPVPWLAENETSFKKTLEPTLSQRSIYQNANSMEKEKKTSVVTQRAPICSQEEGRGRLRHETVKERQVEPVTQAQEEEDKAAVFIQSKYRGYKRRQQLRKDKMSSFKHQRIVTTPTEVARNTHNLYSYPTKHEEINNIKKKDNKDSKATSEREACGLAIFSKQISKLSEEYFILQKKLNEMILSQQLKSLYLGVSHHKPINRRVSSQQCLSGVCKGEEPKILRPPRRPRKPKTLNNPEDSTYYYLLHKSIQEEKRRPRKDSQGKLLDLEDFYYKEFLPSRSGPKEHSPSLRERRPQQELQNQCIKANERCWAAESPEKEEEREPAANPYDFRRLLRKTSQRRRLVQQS
Chain of LATS2 (Q9NRM7 whole entry): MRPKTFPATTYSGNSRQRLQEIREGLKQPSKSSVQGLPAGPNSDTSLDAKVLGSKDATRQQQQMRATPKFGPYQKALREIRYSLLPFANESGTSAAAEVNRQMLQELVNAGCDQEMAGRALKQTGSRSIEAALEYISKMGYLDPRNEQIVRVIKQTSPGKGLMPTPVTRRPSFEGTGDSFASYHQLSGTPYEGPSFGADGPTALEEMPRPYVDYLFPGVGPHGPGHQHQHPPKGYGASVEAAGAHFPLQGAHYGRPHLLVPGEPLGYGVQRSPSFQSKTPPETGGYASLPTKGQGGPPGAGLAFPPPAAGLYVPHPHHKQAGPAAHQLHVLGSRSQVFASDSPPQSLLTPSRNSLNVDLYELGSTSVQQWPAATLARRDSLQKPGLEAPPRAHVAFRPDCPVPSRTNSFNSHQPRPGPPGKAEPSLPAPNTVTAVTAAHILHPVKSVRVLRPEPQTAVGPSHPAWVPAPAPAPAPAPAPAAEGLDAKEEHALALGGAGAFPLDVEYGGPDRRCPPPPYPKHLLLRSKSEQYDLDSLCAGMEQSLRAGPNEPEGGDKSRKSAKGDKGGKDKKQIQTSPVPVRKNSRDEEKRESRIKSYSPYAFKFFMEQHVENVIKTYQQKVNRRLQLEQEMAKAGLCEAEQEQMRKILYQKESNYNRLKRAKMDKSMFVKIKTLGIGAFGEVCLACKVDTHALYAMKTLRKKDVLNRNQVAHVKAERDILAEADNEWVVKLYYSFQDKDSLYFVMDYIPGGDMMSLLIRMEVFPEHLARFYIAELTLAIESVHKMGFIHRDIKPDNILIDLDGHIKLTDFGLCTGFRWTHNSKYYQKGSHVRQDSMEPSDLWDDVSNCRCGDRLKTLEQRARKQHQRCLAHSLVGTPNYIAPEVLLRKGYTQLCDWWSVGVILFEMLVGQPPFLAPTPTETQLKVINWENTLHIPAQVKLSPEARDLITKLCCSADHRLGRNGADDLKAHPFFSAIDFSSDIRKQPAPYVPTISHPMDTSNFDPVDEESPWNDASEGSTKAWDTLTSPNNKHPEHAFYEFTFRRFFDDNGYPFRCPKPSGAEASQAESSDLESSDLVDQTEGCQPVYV
Chain of MAP4K5 (Q9Y4K4 whole entry): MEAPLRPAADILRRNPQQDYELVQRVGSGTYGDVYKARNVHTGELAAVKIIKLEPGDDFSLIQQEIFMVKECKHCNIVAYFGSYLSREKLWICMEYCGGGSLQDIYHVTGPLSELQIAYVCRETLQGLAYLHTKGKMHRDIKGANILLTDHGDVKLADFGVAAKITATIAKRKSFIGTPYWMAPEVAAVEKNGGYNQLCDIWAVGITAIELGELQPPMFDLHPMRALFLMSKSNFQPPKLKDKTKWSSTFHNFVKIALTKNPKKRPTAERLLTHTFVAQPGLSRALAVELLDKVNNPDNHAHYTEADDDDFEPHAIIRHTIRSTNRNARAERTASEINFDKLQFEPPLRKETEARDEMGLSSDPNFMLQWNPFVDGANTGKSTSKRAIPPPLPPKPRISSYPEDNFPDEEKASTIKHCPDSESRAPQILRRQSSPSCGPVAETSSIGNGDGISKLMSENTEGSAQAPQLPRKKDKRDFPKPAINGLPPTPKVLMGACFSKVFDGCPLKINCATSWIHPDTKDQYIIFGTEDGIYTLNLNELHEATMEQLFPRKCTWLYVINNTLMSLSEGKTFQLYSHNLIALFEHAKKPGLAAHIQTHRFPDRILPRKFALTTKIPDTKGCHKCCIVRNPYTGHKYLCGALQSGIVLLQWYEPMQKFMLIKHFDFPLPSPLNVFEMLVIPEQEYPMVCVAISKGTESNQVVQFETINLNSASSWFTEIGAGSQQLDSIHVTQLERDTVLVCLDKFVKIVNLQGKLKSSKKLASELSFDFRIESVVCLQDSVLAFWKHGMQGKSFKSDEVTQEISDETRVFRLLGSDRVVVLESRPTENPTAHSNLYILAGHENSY
Chain of RSK4(Kin.Dom.1-N-terminal) (Q9UK32 73-330): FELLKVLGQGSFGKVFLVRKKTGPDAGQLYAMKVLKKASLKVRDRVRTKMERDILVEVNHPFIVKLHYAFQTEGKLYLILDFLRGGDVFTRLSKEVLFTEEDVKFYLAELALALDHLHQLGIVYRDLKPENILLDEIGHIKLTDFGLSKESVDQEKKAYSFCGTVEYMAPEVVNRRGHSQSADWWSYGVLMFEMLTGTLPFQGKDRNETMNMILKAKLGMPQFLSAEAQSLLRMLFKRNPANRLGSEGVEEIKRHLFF

CN(C[C@@H](O)Cc1ccccc1)C(=O)c1cncc(C#Cc2cnn(C(F)F)c2)c1 [Example 2, (S)-5-((1-(difluoromethyl)-1H-pyrazol-4-yl)ethynyl)-N-(2-hydroxy-3-phenylpropyl)-N-methylnicotinamide]
99%: AKT2; AKT2 | MY03A; MY03A
100%: AMPK-alpha1; AMPK-alpha1 | MLCK; MLCK | DDR2; DDR2 | [1]; RSK4(Kin.Dom.1-N-terminal) | PIK3CA; PIK3CA | FLT3(D835V); FLT3(D835V) | ADCK4; ADCK4 | LOK; LOK | CSNK1G2; CSNK1G2 | MAP3K15; MAP3K15 | CDKL1; CDKL1 | BIKE; BIKE | p38-delta; p38-delta | EPHB2; EPHB2 | NEK1; NEK1 | BRAF; BRAF | [2]; RSK3(Kin.Dom.2-C-terminal) | ASK2; ASK2
79%: ABL1-phosphorylated; ABL1-phosphorylated
96%: SGK; SGK | BRSK2; BRSK2 | MAP3K3; MAP3K3
98%: LATS2; LATS2
92%: JNK1; JNK1
91%: IRAK4; IRAK4
87%: MAP4K5; MAP4K5 | VPS34; VPS34

CN(C[C@H](Cc1ccccc1)OP(=O)(O)O)C(=O)c1cncc(C#Cc2cnn(C(F)F)c2)c1 [Example 19, (S)-1-(5-((1-(difluoromethyl)-1H-pyrazol-4-yl)ethynyl)-N-methylnicotinamido)-3-phenylpropan-2-yl dihydrogen phosphate]
87%: JNK1
97%: MAP3K15
98%: ASK2
78%: ABL1-phosphorylated
93%: [1] | MY03A
92%: MAP3K3
83%: IRAK4
100%: AMPK-alpha1 | MLCK | DDR2 | PIK3CA | FLT3(D835V) | ADCK4 | LOK | LATS2 | CDKL1 | BIKE | p38-delta | EPHB2 | NEK1 | BRAF | [2]
95%: MAP4K5 | BRSK2 | CSNK1G2
90%: SGK | AKT2 | VPS34
